According to publication PMC4800810 (Biomacromolecules, 2015):

Assays:
[1] = 24 h organ biodistribution in mice with femoral fracture; format: in vivo, CD4 Swiss mice; settings: i.v.
solubility in water = format: physicochemical; settings: 6BIO by itself, result in words

## 6’-bromoindirubin-3’-oxime [6BIO]
[1]; 125I-labelled analogues
  drug uptake in the fractured femur over the healthy femur: no statistical difference
[1]; 125I-labelled, result in words
  accumulation in the lungs, liver, and spleen: high accumulation
Solubility in water
  solubility in water: only sparingly soluble in water
